# Measured values taken from US20220125885A1, “GLUCAGON ANALOG AGONISTS AND METHODS OF USING THE SAME” (Eli Lilly and Company, priority 2019, published 2022).
# Where a SMILES comes first, the peptide text is derived from it. Where no end group is shown, it is not given here. [ ]: non-standard residue; d: D form. 4Pal = N[C@@H](Cc1ccncc1)C(=O)O; Dab = NCC[C@H](N)C(=O)O; Aib = CC(C)(N)C(=O)O
# T1: human GIP receptor (hGIP-R) (Homo sapiens, UniProt P48546)
# T1 construct: expressed in transfected cells; host or cells: HEK-293 clonal cell line
# T1 sequence (P48546 22-466): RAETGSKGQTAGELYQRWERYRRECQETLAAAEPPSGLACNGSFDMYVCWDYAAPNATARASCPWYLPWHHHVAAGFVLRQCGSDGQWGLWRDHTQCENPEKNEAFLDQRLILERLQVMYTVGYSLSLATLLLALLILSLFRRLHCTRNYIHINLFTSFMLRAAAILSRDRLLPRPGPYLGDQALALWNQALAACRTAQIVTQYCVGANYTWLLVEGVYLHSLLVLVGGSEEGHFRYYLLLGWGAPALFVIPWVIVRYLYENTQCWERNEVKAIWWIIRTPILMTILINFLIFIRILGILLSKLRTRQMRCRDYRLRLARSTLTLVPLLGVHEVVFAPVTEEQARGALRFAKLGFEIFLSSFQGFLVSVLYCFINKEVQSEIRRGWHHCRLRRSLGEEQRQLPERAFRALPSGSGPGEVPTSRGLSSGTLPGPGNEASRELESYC
# T2: human GLP-2 receptor (human, UniProt O95838 1-553)
# T2 sequence (looked up): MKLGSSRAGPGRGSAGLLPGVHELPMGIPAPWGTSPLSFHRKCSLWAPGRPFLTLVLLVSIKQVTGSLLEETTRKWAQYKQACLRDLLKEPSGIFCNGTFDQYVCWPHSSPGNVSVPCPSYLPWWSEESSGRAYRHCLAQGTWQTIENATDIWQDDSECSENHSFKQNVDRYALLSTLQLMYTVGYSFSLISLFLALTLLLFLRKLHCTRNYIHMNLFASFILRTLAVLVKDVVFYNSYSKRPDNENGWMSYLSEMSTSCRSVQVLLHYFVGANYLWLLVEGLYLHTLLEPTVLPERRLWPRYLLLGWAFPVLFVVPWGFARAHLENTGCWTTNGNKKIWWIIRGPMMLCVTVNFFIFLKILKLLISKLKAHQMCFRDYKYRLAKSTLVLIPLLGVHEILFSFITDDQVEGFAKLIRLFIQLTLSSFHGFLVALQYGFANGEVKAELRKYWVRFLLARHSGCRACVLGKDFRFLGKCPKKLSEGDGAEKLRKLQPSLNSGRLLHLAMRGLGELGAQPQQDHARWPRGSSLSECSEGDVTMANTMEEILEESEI
# How the values were obtained:
# hGCGR = target: T3, hGCGR (Homo sapiens, UniProt P47871); experiment: cAMP functional activity assay, hGCGR HEK-293 cells; assay type: cell-based; details: HEK293; percent of response to 1 nM Glucagon; mean ± SEM
# T3 construct: expressed in transfected cells; host or cells: HEK-293 clonal cell line
# Method: (§1) After a sixty-minute incubation at room temperature, the resulting increase in intracellular cAMP is quantitatively determined using a cAMP Dynamic 2 HTRF Assay Kit (62AM4PEJ; CisBio; Codolet, FR). Briefly, cAMP levels within the cell are detected by adding a cAMP-d2 conjugate in cell lysis buffer (10 μl) followed by an anti-cAMP-Eu3+-Cryptate antibody, also in cell lysis buffer (10 μl). […] A relative EC50 value and percent top (Emax) are derived by non-linear regression analysis using the percent maximal response vs. the concentration of peptide added, fitted to a four-parameter logistic equation.
# [1] = target: T1, human GIP receptor (hGIP-R); experiment: cAMP functional activity assay, hGIP-R HEK-293 cells; assay type: cell-based; details: for Emax at 9.95 µM: HEK293, percent of response to 10 nM GIP(1-42)NH2, Examples at 9.95 μM, read-out: Emax hGIPR; for EC50: in the presence of FBS and BSA, read-out: cAMP EC50 hGIPR
# Method: as §1
# [2] = target: T4, human GLP-1 receptor (hGLP-1R) (Homo sapiens, UniProt P43220); experiment: cAMP functional activity assay, hGLP-1R HEK-293 cells; assay type: cell-based; details: HEK293; percent of response to 10 nM GLP-1(7-36)NH2; mean ± SEM
# T4 construct: expressed in transfected cells; host or cells: HEK-293 clonal cell line
# [3] = tested on: CD8+ T cell-depleted peripheral blood mononuclear cells (CD4+ T cells); experiment: CD4+ T cell assay (immunogenicity); assay type: cell-based, human; details: Cell Division Index; positive donors only
# Method: 1. CD4+ T Cell Assay: to assess the propensity for a clinical immunogenic response to the G compounds of Examples 1-4, CD8+ T cell-depleted peripheral blood mononuclear cells (PBMC's) are prepared and labeled with carboxyfluorescein diacetate succinimidyl ester (CFSE; Invitrogen) from a cohort of 10 healthy donors with diverse human leukocyte antigen (HLA) class II haplotypes. Each donor is tested in triplicate with 2.0 mL media control, keyhole limpet haemocyanin (KLH; 0.33 μM), and the compounds of Examples 1-4 (10 μM). Cultures are incubated for 7 days at 37° C. with 5% CO2. On day 7, samples are analyzed by flow cytometry using a BD LSR II Fortessa (Becton Dickinson; Franklin Lakes, N.J.), equipped with a high throughput sampler (HTS). Data is analyzed using FlowJo® Software (FlowJo, LLC/TreeStar; Ashland, Oreg.).
# Protein therapeutics that induce less than 30% positive response in the CD4+ T cell proliferation assay are associated with a low risk of immunogenicity.
# in vivo = details: male, Yucatan miniature swine, pig, sc, 10 ug/kg
# Method: 1. […] The compounds and an analog as an internal standard are extracted from […] by antibody or protein precipitations. The intact mass of the compounds are detected by a Q Exactive® Orbitrap® Mass Spectrometer (Thermo Fisher Scientific; Waltham, Mass.). 2. […] Blood is collected at pre-dose, 2, 5, 10, 15, 20, 25, 30, 45, 60, 75, 90, 120 and 150 minutes post-dose, and plasma is obtained for pharmacokinetic characterization. […] Blood is collected at pre-dose, 2, 5, 10, 15, 20, 25, 30, 45, 60, 75, 90, 120 and 150 minutes postdose, and plasma is obtained for pharmacokinetic characterization.
# human GLP-2 receptor = target: T2, human GLP-2 receptor; experiment: cell-based or functional assay
# T4 sequence (P43220 24-463): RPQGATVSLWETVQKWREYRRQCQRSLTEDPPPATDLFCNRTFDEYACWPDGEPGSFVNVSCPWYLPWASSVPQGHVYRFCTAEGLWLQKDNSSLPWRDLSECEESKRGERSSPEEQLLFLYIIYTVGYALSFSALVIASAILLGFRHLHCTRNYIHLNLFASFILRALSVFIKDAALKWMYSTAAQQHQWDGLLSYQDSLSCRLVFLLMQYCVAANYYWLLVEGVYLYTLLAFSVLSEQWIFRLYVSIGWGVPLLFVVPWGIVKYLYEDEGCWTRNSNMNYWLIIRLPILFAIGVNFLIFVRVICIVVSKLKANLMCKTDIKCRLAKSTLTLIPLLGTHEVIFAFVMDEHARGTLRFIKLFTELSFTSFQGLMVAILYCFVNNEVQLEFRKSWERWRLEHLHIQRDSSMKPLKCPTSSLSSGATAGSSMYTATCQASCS
# T3 sequence (P47871 26-477): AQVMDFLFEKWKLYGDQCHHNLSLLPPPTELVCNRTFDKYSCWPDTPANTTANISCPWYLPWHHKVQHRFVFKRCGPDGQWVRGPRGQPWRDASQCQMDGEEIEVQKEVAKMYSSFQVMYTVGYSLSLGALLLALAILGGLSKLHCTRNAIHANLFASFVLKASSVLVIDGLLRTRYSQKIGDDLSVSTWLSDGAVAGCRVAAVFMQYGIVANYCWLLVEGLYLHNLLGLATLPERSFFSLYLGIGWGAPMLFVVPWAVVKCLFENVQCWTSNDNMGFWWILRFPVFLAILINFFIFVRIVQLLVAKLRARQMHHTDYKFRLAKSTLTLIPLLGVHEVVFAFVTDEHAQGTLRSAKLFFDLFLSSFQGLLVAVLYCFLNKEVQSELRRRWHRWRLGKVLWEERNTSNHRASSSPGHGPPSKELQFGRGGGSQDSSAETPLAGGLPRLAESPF
Molecule,Emax (hGCGR) [%],Emax at 9.95 µM [1] [%],EC50 [1] [µM],Emax [2] [%],Median Response Strength in positive donors (CDI) [3],Tmax (in vivo) [min],Cmax (in vivo; Cmax) [ng/mL],half-life (in vivo; T1/2) [min],cAMP EC50 (human GLP-2 receptor) [nM]
CC(C)C[C@H](NC(=O)[C@H](Cc1ccncc1)NC(=O)[C@H](CCCCN)NC(=O)[C@@H](NC(=O)[C@H](Cc1ccccc1)NC(=O)[C@H](CCC(N)=O)NC(=O)[C@H](CCC(N)=O)NC(=O)[C@H](C)NC(=O)[C@H](CCCNC(=N)N)NC(=O)[C@H](CCCNC(=N)N)NC(=O)C(C)(C)NC(=O)[C@H](CC(=O)O)NC(=O)[C@H](CC(C)C)NC(=O)[C@H](Cc1ccc(O)cc1)NC(=O)[C@H](CCCCN)NC(=O)[C@H](CO)NC(=O)[C@H](Cc1ccc(O)cc1)NC(=O)[C@H](CC(=O)O)NC(=O)[C@H](CO)NC(=O)[C@@H](NC(=O)[C@H](Cc1ccccc1)NC(=O)[C@@H](NC(=O)CNC(=O)[C@H](CCC(N)=O)NC(=O)[C@H](CO)NC(=O)[C@@H](N)Cc1c[nH]cn1)[C@@H](C)O)[C@@H](C)O)C(C)C)C(=O)N[C@@H](CC(C)C)C(=O)N[C@@H](CO)C(=O)N[C@H](C(=O)O)[C@@H](C)O [Example 1] (H-HSQGTFTSDYSKYLD[Aib]RRAQQFVK[4Pal]LLST-OH; N-terminus assumed),103 ± 2,< 5,> 9.95,105 ± 2,–,20,–,–,–
HADGSFSDEMNTILDNLAARDFINWLIQTKITDR-OH [GLP-2 (1-34) acid],–,–,–,–,–,–,–,–,0.016

# The remaining lines, values ahead:
Emax (hGCGR) [%],Emax at 9.95 µM [1] [%],EC50 [1] [µM],Emax [2] [%],Median Response Strength in positive donors (CDI) [3],Tmax (in vivo) [min],Cmax (in vivo; Cmax) [ng/mL],half-life (in vivo; T1/2) [min],cAMP EC50 (human GLP-2 receptor) [nM],Molecule
98 ± 2,< 5,> 9.95,100 ± 5,6.42,25,–,–,–,CC(=O)NCC[C@H](NC(=O)[C@H](CO)NC(=O)[C@@H](N)Cc1c[nH]cn1)C(=O)NCC(=O)N[C@H](C(=O)N[C@@H](Cc1ccccc1)C(=O)N[C@H](C(=O)N[C@@H](CO)C(=O)N[C@@H](CC(=O)O)C(=O)N[C@@H](Cc1ccc(O)cc1)C(=O)N[C@@H](CO)C(=O)N[C@@H](CCCCN)C(=O)N[C@@H](Cc1ccc(O)cc1)C(=O)N[C@@H](CC(C)C)C(=O)N[C@@H](CC(=O)O)C(=O)NC(C)(C)C(=O)N[C@@H](CCCNC(=N)N)C(=O)N[C@@H](CCCNC(=N)N)C(=O)N[C@@H](C)C(=O)N[C@@H](CCC(N)=O)C(=O)N[C@@H](CCC(N)=O)C(=O)N[C@@H](Cc1ccccc1)C(=O)N[C@H](C(=O)N[C@@H](CCCCN)C(=O)N[C@@H](Cc1ccncc1)C(=O)N[C@@H](CC(C)C)C(=O)N[C@@H](CC(C)C)C(=O)N[C@@H](CO)C(=O)N[C@H](C(=O)O)[C@@H](C)O)C(C)C)[C@@H](C)O)[C@@H](C)O [Example 4] (H-HS[Dab](Ac)GTFTSDYSKYLD[Aib]RRAQQFVK[4Pal]LLST-OH; N-terminus assumed)
–,< 5,> 9.95,109 ± 5,6.5,–,1.8,26.8,–,CC(=O)NCC[C@H](NC(=O)[C@H](CO)NC(=O)[C@@H](N)Cc1c[nH]cn1)C(=O)NCC(=O)N[C@H](C(=O)N[C@@H](Cc1ccccc1)C(=O)N[C@H](C(=O)N[C@@H](CO)C(=O)N[C@@H](CC(=O)O)C(=O)N[C@@H](Cc1ccc(O)cc1)C(=O)N[C@@H](CO)C(=O)N[C@@H](CCCCN)C(=O)N[C@@H](Cc1ccc(O)cc1)C(=O)N[C@@H](CC(C)C)C(=O)N[C@@H](CC(=O)O)C(=O)NC(C)(C)C(=O)N[C@@H](CCCNC(=N)N)C(=O)N[C@@H](CCCNC(=N)N)C(=O)N[C@@H](C)C(=O)N[C@@H](CCC(N)=O)C(=O)N[C@@H](C)C(=O)N[C@@H](Cc1ccccc1)C(=O)N[C@H](C(=O)N[C@@H](CCCCN)C(=O)N[C@@H](Cc1ccncc1)C(=O)N[C@@H](CC(C)C)C(=O)N[C@@H](CC(C)C)C(=O)N[C@@H](CO)C(=O)N[C@H](C(=O)O)[C@@H](C)O)C(C)C)[C@@H](C)O)[C@@H](C)O [Example 3]
